Data published in PubChem BioAssay AID330 (DTP/NCI, 2004).
“And” between values parts separate entries of the source, which are not always exact repeats. Equal entries are not always repeated. Toxic doses and inconclusive results are not listed. Rule for the calls: active = survival T/C of 150% or more; inactive = T/C below 125% in these data.

Test system: P388 leukemia ip, CD2F1 mice, survival T/C
Test: NCI In Vivo Anticancer Drug Screen. Data for tumor model P388 Leukemia (intraperitoneal) in CD2F1 (CDF1) mice
Conditions: endpoint: median survival time, higher = longer survival
Method in brief: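 Mice carrying the transplanted tumor received test compound or vehicle. Survival was recorded in each group, and the value is the treated-group measurement divided by that of the vehicle-treated control group.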

[1] = dose: 100.0 mg/kg/injection, schedule: Q04DX003 (ip), vehicle: Klucel (hydroxypropylcellulose) (HPC)
[2] = dose: 200.0 mg/kg/injection, schedule: Q04DX003 (ip), vehicle: Klucel (hydroxypropylcellulose) (HPC)
[3] = dose: 400.0 mg/kg/injection, schedule: Q04DX003 (ip), vehicle: Klucel (hydroxypropylcellulose) (HPC)
[4] = dose: 50.0 mg/kg/injection, schedule: Q01DX005 (ip), vehicle: saline with Tween-80
[5] = dose: 100.0 mg/kg/injection, schedule: Q01DX005 (ip), vehicle: saline with Tween-80
[6] = dose: 200.0 mg/kg/injection, schedule: Q01DX005 (ip), vehicle: saline with Tween-80

Measured: T/C

Cc1c(N)nc([C@H](CC(N)=O)NC[C@H](N)C(N)=O)nc1C(=O)N[C@H](C(=O)N[C@H](C)[C@@H](O)CC(=O)N[C@H](C(=O)NC(O[C@@H]1O[C@@H](C)[C@@H](N)[C@@H](O)[C@H]1O)C(O)c1nc(-c2nc(C(=O)NCCCCN)cs2)cs1)[C@@H](C)O)[C@@H](O[C@@H]1O[C@@H](CO)[C@@H](O)[C@H](O)[C@@H]1O[C@H]1O[C@H](CO)[C@@H](O)[C@H](OC(N)=O)[C@@H]1O)c1c[nH]cn1 (stereo partly specified)
inactive: dose: 0.5 mg/kg/injection, schedule: Q01DX009 (ip), vehicle: water 101 % of control | dose: 1.0 mg/kg/injection, schedule: Q01DX009 (ip), vehicle: water 98 % of control | dose: 2.0 mg/kg/injection, schedule: Q01DX009 (ip), vehicle: water 124 % of control | dose: 4.0 mg/kg/injection, schedule: Q01DX009 (ip), vehicle: water 95 % of control | dose: 8.0 mg/kg/injection, schedule: Q01DX009 (ip), vehicle: water 123 % of control

CCCC/C=C(\C#N)SCC
inactive: dose: 37.5 mg/kg/injection, schedule: Q01DX009 (ip), vehicle: saline with Tween-80 100 % of control and 112 % of control and 118 % of control | dose: 75.0 mg/kg/injection, schedule: Q01DX009 (ip), vehicle: saline with Tween-80 105 % of control and 114 % of control and 119 % of control | dose: 150.0 mg/kg/injection, schedule: Q01DX009 (ip), vehicle: saline with Tween-80 106 % of control and 123 % of control | dose: 300.0 mg/kg/injection, schedule: Q01DX009 (ip), vehicle: saline with Tween-80 104 % of control

NC(CSCSCc1ccccc1)C(=O)O (stereo unspecified)
inactive: dose: 25.0 mg/kg/injection, schedule: Q01DX009 (ip), vehicle: other 102 % of control | dose: 50.0 mg/kg/injection, schedule: Q01DX009 (ip), vehicle: other 110 % of control | dose: 100.0 mg/kg/injection, schedule: Q01DX009 (ip), vehicle: other 102 % of control | dose: 200.0 mg/kg/injection, schedule: Q01DX009 (ip), vehicle: other 106 % of control

Cc1ccc(C)c(N2C(=O)CC3(CCCC3)C2=O)c1
inactive: [1] 101 % of control | [2] 101 % of control | [3] 99 % of control

N#CCC(=O)O
inactive: dose: 18.75 mg/kg/injection, schedule: Q04DX003 (ip), vehicle: saline 100 % of control | dose: 37.5 mg/kg/injection, schedule: Q04DX003 (ip), vehicle: saline 100 % of control | dose: 75.0 mg/kg/injection, schedule: Q04DX003 (ip), vehicle: saline 90 % of control

NC(=S)N/N=C/c1cccc(CC(O)(C(F)(F)F)C(F)(F)F)n1
inactive: dose: 12.5 mg/kg/injection, schedule: Q04DX003 (ip), vehicle: saline with Tween-80 100 % of control | dose: 25.0 mg/kg/injection, schedule: Q04DX003 (ip), vehicle: saline with Tween-80 87 % of control

COC(=O)C1=C(C(=O)OC)C2(C)NC1(C)c1c(C)ccc(C)c12
inactive: dose: 42.5 mg/kg/injection, schedule: Q01DX001 (ip), vehicle: saline with Tween-80 103 % of control | dose: 85.0 mg/kg/injection, schedule: Q01DX001 (ip), vehicle: saline with Tween-80 94 % of control | dose: 170.0 mg/kg/injection, schedule: Q01DX001 (ip), vehicle: saline with Tween-80 89 % of control

O=C1c2ccccc2NC(O)c2cccn21 (stereo unspecified)
inactive: dose: 0.1 mg/kg/injection, schedule: Q01DX005 (ip), vehicle: water 89 % of control | dose: 0.2 mg/kg/injection, schedule: Q01DX005 (ip), vehicle: water 91 % of control | dose: 0.4 mg/kg/injection, schedule: Q01DX005 (ip), vehicle: water 93 % of control | dose: 0.8 mg/kg/injection, schedule: Q01DX005 (ip), vehicle: water 91 % of control | dose: 1.6 mg/kg/injection, schedule: Q01DX005 (ip), vehicle: water 93 % of control | dose: 5.0 mg/kg/injection, schedule: Q01DX005 (ip), vehicle: distilled water + Tween-80 99 % of control | dose: 10.0 mg/kg/injection, schedule: Q01DX005 (ip), vehicle: distilled water + Tween-80 99 % of control | dose: 20.0 mg/kg/injection, schedule: Q01DX005 (ip), vehicle: distilled water + Tween-80 99 % of control | dose: 40.0 mg/kg/injection, schedule: Q01DX005 (ip), vehicle: distilled water + Tween-80 100 % of control | dose: 80.0 mg/kg/injection, schedule: Q01DX005 (ip), vehicle: distilled water + Tween-80 95 % of control

CC(C)=CCC/C(C)=C/Cc1ccccc1
inactive: dose: 50.0 mg/kg/injection, schedule: Q01DX009 (ip), vehicle: saline with Tween-80 101 % of control and 109 % of control | dose: 100.0 mg/kg/injection, schedule: Q01DX009 (ip), vehicle: saline with Tween-80 103 % of control and 110 % of control | dose: 200.0 mg/kg/injection, schedule: Q01DX009 (ip), vehicle: saline with Tween-80 109 % of control

CC(C)(C)SC(=O)C1(C(O)c2ccccc2)CC1 (stereo unspecified)
inactive: [1] 106 % of control | [2] 115 % of control | [3] 112 % of control

CCOc1ccc2c(c1)[n+](=O)c1ccc(Cl)cc1n2[O-]
inactive: [4] 104 % of control and 111 % of control and 118 % of control | [5] 104 % of control and 116 % of control and 118 % of control | [6] 112 % of control

Clc1ccc(N=Cc2ccc(C=Nc3ccc(Cl)cc3)cc2)cc1
inactive: dose: 6.25 mg/kg/injection, schedule: Q01DX009 (ip), vehicle: Klucel (hydroxypropylcellulose) (HPC) 94 % of control | dose: 12.5 mg/kg/injection, schedule: Q01DX009 (ip), vehicle: Klucel (hydroxypropylcellulose) (HPC) 91 % of control | dose: 25.0 mg/kg/injection, schedule: Q01DX009 (ip), vehicle: Klucel (hydroxypropylcellulose) (HPC) 94 % of control

O=C1NC(=O)C2=C1CCCC2Br (stereo unspecified)
inactive: dose: 3.13 mg/kg/injection, schedule: Q01DX009 (ip), vehicle: distilled water + Tween-80 99 % of control | dose: 6.25 mg/kg/injection, schedule: Q01DX009 (ip), vehicle: distilled water + Tween-80 92 % of control | dose: 12.5 mg/kg/injection, schedule: Q01DX009 (ip), vehicle: distilled water + Tween-80 117 % of control

COc1ccc(/C=N/N2CN(C(C)C(=O)O)B(NCCC(C)C)N=C2N)cc1OC (stereo unspecified)
inactive: dose: 60.0 mg/kg/injection, schedule: Q01DX005 (ip), vehicle: saline 104 % of control | dose: 120.0 mg/kg/injection, schedule: Q01DX005 (ip), vehicle: saline 105 % of control

CCC[CH2][Sn]([CH2]CCC)([S]CCS(=O)(=O)O)[S]CCS(=O)(=O)O
inactive: dose: 60.0 mg/kg/injection, schedule: Q01DX005 (ip), vehicle: Klucel (hydroxypropylcellulose) (HPC) 100 % of control | dose: 120.0 mg/kg/injection, schedule: Q01DX005 (ip), vehicle: Klucel (hydroxypropylcellulose) (HPC) 101 % of control | dose: 240.0 mg/kg/injection, schedule: Q01DX005 (ip), vehicle: Klucel (hydroxypropylcellulose) (HPC) 99 % of control

Cc1cc(C(O)(C(F)(F)F)C(F)(F)F)cc(C(O)(C(F)(F)F)C(F)(F)F)c1
inactive: dose: 50.0 mg/kg/injection, schedule: Q01DX005 (ip), vehicle: Klucel (hydroxypropylcellulose) (HPC) 100 % of control | dose: 100.0 mg/kg/injection, schedule: Q01DX005 (ip), vehicle: Klucel (hydroxypropylcellulose) (HPC) 91 % of control | dose: 200.0 mg/kg/injection, schedule: Q01DX005 (ip), vehicle: Klucel (hydroxypropylcellulose) (HPC) 97 % of control

O=C1CCC(N(Cc2ccccc2)Cc2ccccc2)C(=O)O1 (stereo unspecified)
inactive: [1] 112 % of control | [2] 109 % of control | [3] 100 % of control

COc1ccccc1C1c2cc3c(cc2OC(C)(O)C1C)OCO3 (stereo unspecified)
inactive: [4] 100 % of control | [5] 97 % of control | [6] 96 % of control

CN1c2ccc(C=O)cc2Sc2cc(C=O)ccc21
inactive: dose: 60.0 mg/kg/injection, schedule: Q01DX005 (ip), vehicle: saline with Tween-80 91 % of control | dose: 120.0 mg/kg/injection, schedule: Q01DX005 (ip), vehicle: saline with Tween-80 91 % of control | dose: 240.0 mg/kg/injection, schedule: Q01DX005 (ip), vehicle: saline with Tween-80 90 % of control

N#CCC(=O)N/N=C(/CC1(O)C(=O)Nc2c(Cl)ccc(Cl)c21)c1ccco1 (stereo unspecified)
inactive: dose: 100.0 mg/kg/injection, schedule: Q04DX002 (ip), vehicle: saline with Tween-80 97 % of control | dose: 200.0 mg/kg/injection, schedule: Q04DX002 (ip), vehicle: saline with Tween-80 89 % of control | dose: 400.0 mg/kg/injection, schedule: Q04DX002 (ip), vehicle: saline with Tween-80 89 % of control

CCCCCCCCCCCCCCCC[N+](C)(C)CCSCC(N)=O
inactive: dose: 12.5 mg/kg/injection, schedule: Q04DX003 (ip), vehicle: saline 109 % of control | dose: 50.0 mg/kg/injection, schedule: Q04DX003 (ip), vehicle: saline 111 % of control and 121 % of control

Cc1ccc(S(=O)(=O)/C=C/C(=O)c2cccs2)cc1
inactive: dose: 100.0 mg/kg/injection, schedule: Q04DX002 (ip), vehicle: saline 99 % of control | dose: 200.0 mg/kg/injection, schedule: Q04DX002 (ip), vehicle: saline 100 % of control | dose: 400.0 mg/kg/injection, schedule: Q04DX002 (ip), vehicle: saline 107 % of control

CC1CCC=CC(=O)C1 (stereo unspecified)
inactive: [1] 102 % of control | [2] 108 % of control
